For 10 molecules, viability, T/C and IC50 results are on record in PubChem BioAssay AID1963843 (Molecular Pharmacology Branch, DTP, NCI, 2024).

The structures appear in SMILES notation. Several values for one entry are separate records, joined by “and”; a condition that tells them apart may be missing. Identical values can stand only once.

This assay deals with 616215-338-R-J1-PDC complex spheroid viability. As to the kind of experiment: Anticancer human tumor 616215-338-R-J1-PDC patient-derived colon adenocarcinoma cell line growth inhibition [POLQ]. The settings on record: for viability, T/C: stronger effect = lower value. On the procedure: Multicellular complex tumor spheroid response to Polymerase (POL) inhibitors (novobiocin, ART-558, RP6685) in combination with a variety of drugs and investigational agents in selected tumor cell lines
The POL inhibitors (novobiocin, ART-558, and RP6685) were evaluated both individually and in combination with standard of care and investigational anticancer small molecules within a complex spheroid model of solid tumors. . Complex spheroids include a stromal component modeled by human endothelial cells (HUVEC) and fibroblasts modeled by human mesenchymal stem cells (MSCs). The concentration ranges selected for each drug and investigational agent were based upon clinically achievable concentrations if the clinical Cmax of the agent was known.
Compounds. The drugs and investigational agents: novobiocin (NSC847541), ART-558 (NSC835418), RP-6685 (NSC848927), peposertib (NSC802822), ceralasertib (NSC780249), elimusertib (NSC800525), camonsertib (NSC841442), AZD-1390 (NSC803789), olaparib (NSC753686), talazoparib (NSC767125), rucaparib (NSC756644), sotorasib (NSC818433), MRTX-1133 (NSC836407), SN-38 (NSC673596), topotecan (NSC609699), epotoside (NSC141540), doxorubicin (NSC123127), gemcitabine (NSC613327), 5-fluorouracil (NSC19893), paclitaxel (NSC125973), vemurafenib (NSC761431), MSA-2 (NSC828583), SN-011 (NSC837082), adavosertib (NSC754352), prexasertib (NSC758257), carboplatin (NSC241240) and oxaliplatin (NSC266046), were obtained from the National Cancer Institute (NCI) Developmental Therapeutics Program Chemical Repository (21). The FDA-approved anticancer drug set is available from the Developmental Therapeutics Program at https://dtp.cancer.gov/organization/dscb/obtaining/. […] The stock solutions were prepared in dimethyl sulfoxide (DMSO, Sigma-Aldrich, St. Louis, MO, cat. D2650), except for the platinum compounds which were prepared in saline (Quality Biological, Gaithersburg, MD, cat. 114-055-101), at 800-fold the tested concentration and stored at -70 degrees C prior to their use. All drugs and investigational agents were tested over a range starting from a high concentration at or near the clinical Cmax and decreasing in half-log increments. If the clinical Cmax for an agent had not been determined, the highest concentration tested was 10 microM, except for SN-38, which was tested at a high concentration of 1 microM.
Cell Culture. All cells were maintained in an incubator at 37 degrees C and 5% CO2 with 95% humidity. The PDC lines were cultured according to standard operating procedures established by the NCI PDMR (https://pdmr.cancer.gov). Table 3 of the manuscript, lists the cell lines along with the number of the three cell types plated to form the mct-spheroids and media for tumor cell growth. After thawing, all PDC lines, except 997537-175-T-J1-PDC and 415267-285-R-J2-PDC, were cultured in Matrigel-coated flasks prepared with a working solution of 1X Ham's F-12 nutrient mix, without supplementation (Thermo Fisher Scientific, cat. 11765054), 100 U/mL penicillin-streptomycin (Thermo Fisher Scientific, cat. 15140122), and 2.5% Matrigel (Corning Inc., Corning, NY, cat. 354248) for the first three passages. The two PDC lines 997537-175-T-J1-PDC and 415267-285-R-J2-PDC were cultured on uncoated flasks. The 857933-349-R-J2-PDC line was cultured in 6C/Colon 1B media containing advanced DMEM/F-12 (Thermo Fisher Scientific, cat. 12634028), 10 mM HEPES (Thermo Fisher Scientific, cat. 15630080), 1X GlutaMAX supplement (Thermo Fisher Scientific, cat. 35050061), 0.1 mg/mL primocin (InvivoGen, San Diego, CA, cat. ant-pm-2), 10% defined fetal bovine serum, heat inactivated (HyClone Laboratories Inc., Logan, UT, cat. SH30070.03HI), 50% L-WRN conditioned media (ATCC, cat. CRL-3276), 1.25 mM N-Acetyl-L-cysteine (Sigma-Aldrich, cat. A9165), 10 mM nicotinamide (Sigma-Aldrich, cat. N0636), 1X B-27 supplement (Thermo Fisher Scientific, cat. 17504044), 1X N-2 supplement (Thermo Fisher Scientific, cat. […]
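Note: spheroids exposed to compounds for one week before readout.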
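Throughout, for viability, T/C: percent viability relative to DMSO vehicle wells taken as 100%.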

Broadly, the viability, T/C is the ratio of treated to control. The term IC50 denotes the concentration that gives 50% inhibition. `C=CCn1c(=O)c2cnc(Nc3ccc(N4CCN(C)CC4)cc3)nc2n1-c1cccc(C(C)(C)O)n1`: the viability, T/C is, setting by setting: (compound 0.00316 µM) 98.4% and 98.6% and 104%; (compound 0.01 µM) 101% and 96.2% and 96.8%; (compound 0.0316 µM) 105% and 102% and 99.9%; (compound 0.1 µM) 93.8% and 88.6% and 96.6%; (compound 0.316 µM) 88.4% and 64% and 54.5%; (compound 1 µM) 60.4% and 31.4% and 34.6%. Moreover, the IC50 (curve of compound) was > 1 µM and 0.516 µM and 0.41 µM.

For the molecule `CC(=O)O[C@H]1C(=O)[C@@]2(C)[C@H]([C@H](OC(=O)c3ccccc3)[C@]3(O)C[C@H](OC(=O)[C@H](O)[C@@H](NC(=O)c4ccccc4)c4ccccc4)C(C)=C1C3(C)C)[C@]1(OC(C)=O)CO[C@@H]1C[C@@H]2O`, the viability, T/C reads like this: (compound 0.00949 µM) 39.3% and 41.7% and 86.3%; (compound 0.03 µM) 23.3% and 27.1% and 44.5%; (compound 0.0949 µM) 23.8% and 24.4% and 38.2%; (compound 0.3 µM) 15.6% and 17.9% and 35.5%; (compound 0.949 µM) 18% and 18.2% and 36.7%; (compound 3 µM) 21.7% and 17.8% and 34.3%. Moreover, the half-inhibitory concentration (IC50) (curve of compound) is < 0.00949 µM and 0.0258 µM.

Regarding `CC(C)n1c(=O)n(C)c2cnc3cc(F)c(-c4ccc(OCCCN5CCCCC5)nc4)cc3c21`, the viability, T/C reads like this: (compound 0.0316 µM) 112% and 102% and 72.9%; (compound 0.1 µM) 97% and 109% and 75%; (compound 0.316 µM) 106% and 93% and 74.8%; (compound 1 µM) 107% and 94.6% and 79.2%; (compound 3.16 µM) 108% and 101% and 85.2%; (compound 10 µM) 101% and 96% and 72.1%. Moreover, the half-inhibitory concentration (IC50) (curve of compound) is > 10 µM.

On to `CC1COCCN1c1cc(-c2ccnn2C)c2ccnc(-c3ccn[nH]3)c2n1` (stereo not drawn), for which the viability, T/C is, setting by setting: (compound 0.0316 µM) 95.3% and 98.7% and 94%; (compound 0.1 µM) 102% and 90.3% and 66%; (compound 0.316 µM) 73.7% and 70.5% and 39.4%; (compound 1 µM) 60.4% and 47.1% and 31.4%; (compound 3.16 µM) 50% and 27.1% and 28.4%; (compound 10 µM) 44.6% and 40.1% and 21.7%.

With `CC1COCCN1c1cc(C2(S(C)(=N)=O)CC2)nc(-c2ccnc3[nH]ccc23)n1` (stereo not drawn), the viability, T/C runs as follows: (compound 0.0316 µM) 99.9% and 97.9% and 100%; (compound 0.1 µM) 107% and 90.8% and 112%; (compound 0.316 µM) 95.8% and 93.9% and 108%; (compound 1 µM) 99.2% and 99.4% and 95.3%; (compound 3.16 µM) 99% and 74.6% and 107%; (compound 10 µM) 71.5% and 39.9% and 74.1%. In addition, the half-maximal inhibitory concentration (IC50) (curve of compound) is > 10 µM and 7.18 µM.

On to `CCCS(=O)(=O)Nc1ccc(F)c(C(=O)c2c[nH]c3ncc(-c4ccc(Cl)cc4)cc23)c1F`, for which the viability, T/C is, setting by setting: (compound 0.0316 µM) 106% and 102% and 108%; (compound 0.1 µM) 97.4% and 107% (2×); (compound 0.316 µM) 105% and 102% and 97.8%; (compound 1 µM) 107% and 102% and 95.8%; (compound 3.16 µM) 101% (2×) and 91.2%; (compound 10 µM) 10.8% and 13.5% and 20.5%. The half-inhibitory concentration (IC50) (curve of compound) is 6.07 µM and 6.2 µM and 6.12 µM.

Turning to `CC[C@@]1(O)C(=O)OCc2c1cc1n(c2=O)Cc2cc3c(CN(C)C)c(O)ccc3nc2-1`, the viability, T/C reads like this: (compound 0.000316 µM) 83.5% and 113% and 93.4%; (compound 0.001 µM) 99.2% and 100% and 96.4%; (compound 0.00316 µM) 99.6% and 109% and 96.2%; (compound 0.01 µM) 97.7% and 101% and 110%; (compound 0.0316 µM) 111% and 70.1% and 103%; (compound 0.1 µM) 82.6% and 39% and 93.5%. Besides, for the setting “curve of compound”, the half-maximal inhibitory concentration (IC50) was > 0.1 µM and 0.0666 µM.

For `CCc1c2c(nc3ccc(O)cc13)-c1cc3c(c(=O)n1C2)COC(=O)[C@]3(O)CC`, the viability, T/C (compound 0.00316 µM) was 96.8% and 81.2% and 106%; the viability, T/C (compound 0.01 µM) is 92.7% and 44.1% and 89.9%; the viability, T/C (compound 0.0316 µM) was 66.5% and 33.8% and 61.6%; the viability, T/C (compound 0.1 µM) is 51.2% and 26.8% and 51.4%; the viability, T/C (compound 0.316 µM) was 29.8% and 16.6% and 34.1%; the viability, T/C (compound 1 µM) is 16.3% and 9.67% and 18%.

For the molecule `CNCc1ccc(-c2[nH]c3cc(F)cc4c3c2CCNC4=O)cc1`, the viability, T/C is, setting by setting: (compound 0.0316 µM) 92.7% and 108% and 87.4%; (compound 0.1 µM) 99.1% and 101% and 106%; (compound 0.316 µM) 102% and 104% and 96.3%; (compound 1 µM) 96.4% and 106% and 107%; (compound 3.16 µM) 103% and 107% and 96.9%; (compound 10 µM) 90.2% and 26.3% and 83.5%. Besides, the IC50 (curve of compound) was > 10 µM and 7.08 µM.

`COC1C(OC(N)=O)C(O)C(Oc2ccc3c(O)c(NC(=O)c4ccc(O)c(CC=C(C)C)c4)c(=O)oc3c2C)OC1(C)C` (stereo not drawn): the viability, T/C is 101% [middle of 13 runs] (compound 0.0316 µM); 102% [middle of 12 runs] (compound 0.1 µM); 103% [middle of 13 runs] (compound 0.316 µM); 99.2% [middle of 13 runs] (compound 1 µM); 101% [middle of 13 runs] (compound 3.16 µM); 100% [middle of 13 runs] (compound 10 µM). In addition, for the setting “compound alone, run of 11/27/2023”, the IC50 was > 10 µM.
